Test results from PubChem BioAssay AID2305 (GlaxoSmithKline (GSK), 2010).

What follows are molecules tested on P. falciparum 3D7 growth, pLDH absorbance (assay: P. falciparum 3D7 growth inhibition, dose response, strain 3D7 (AID 2305)).

In order of rising IC50:
1. CC1(C)N=C(N)NC(NOCCCCCCONC2=NC(C)(C)N=C(N)N2)=N1  30 nM
2. CC1(C)N=C(NC(=O)Nc2ccc([N+](=O)[O-])cc2)N=C(N)N1OCc1cccc2ccccc12  60 nM
3. CCCN(CCC)C(C)CCC(C)Nc1c2ccc(Cl)cc2nc2ccc(OC)cc12 (configuration not stated)  70 nM
4. CCC[C@@H]([C@@H](CC1CCCCC1)C(=O)N[C@H](C(=O)Nc1nccs1)C(C)(C)SC)N(O)C=O  150 nM
5. Cc1ccc(O)cc1Nc1ccnc2ccc(-c3csc(CNCCN4CCOCC4)n3)cc12  150 nM
6. CCN(CCCN1CCCCC1)c1cc(C)nc(Nc2ccc(Cl)c(C(F)(F)F)c2)n1  170 nM
7. Cc1cc(Nc2ccc3ccccc3c2)n2ncnc2n1  170 nM
8. O=C(Nc1cccc(-c2nn3ncccc3c2-c2ccnc(Nc3cccc(-c4cnco4)c3)n2)c1)c1c(F)cccc1F  170 nM
9. Cc1noc(C)c1-c1cccc(CNCc2cccc(-c3cccc(-c4nc5ccc(F)cc5[nH]4)c3)c2)c1  180 nM
10. Cc1ccccc1C1CCN(c2ccc(C(=O)Nc3ccc(F)cc3)cn2)CC1  190 nM
11. CCOc1ccc2nc(C)cc(NN=Cc3ccccc3Cl)c2c1  190 nM
12. O=S(=O)(NCCN1CCCC1)c1cccc(-c2ccc(CNCc3ccc(F)cc3)cc2)c1  230 nM
13. Cc1nn(-c2ccc(Cl)cc2)c2[nH]c(CN3CCN(c4cccc(Cl)c4)CC3)cc(=O)c12  240 nM
14. Clc1cc(Cl)c2cc(CN[C@H]3CCC[C@@H]3CNc3nc4ccccc4[nH]3)[nH]c2c1  270 nM
15. c1ccc2[nH]c(-c3ccc(-c4ccc(CN5CCN(CCN6CCOCC6)CC5)cc4)s3)nc2c1  280 nM
16. COc1ccc2nccc([C@@H](O)CN3CCC(NC(=O)/C=C/c4ccc(Cl)c(C(F)(F)F)c4)CC3)c2c1  290 nM
17. O=C(NC1CCN(Cc2ccccc2)CC1)c1ccc(-c2nc3cc(Cl)c(F)cc3[nH]2)s1  310 nM
18. Cc1[nH]cc(Br)c(=O)c1-c1ccc(Oc2ccc(OC(F)(F)F)cc2)cc1  330 nM
19. CCCCN(CCCC)Cc1cc2ccccc2cc1O  350 nM
20. CCc1c(CCNCCc2cccc(CCNCCc3ccc(OC)c(OC)c3CC)c2)ccc(OC)c1OC  360 nM
21. CCNc1cc(C(=O)N[C@@H](Cc2ccccc2)[C@H](O)CNC(C)C)cc(N2CC(c3ccccc3)CCS2(=O)=O)c1 (some centres not stated)  410 nM
22. O=C(NCCCCN1CCN(c2cccc3c2CCCC3)CC1)c1ccc(NC(=O)c2ccc(Cl)cc2)cc1  450 nM
23. CC(C)Cc1nc(N2CCOCC2)c2nnn(Cc3ccccc3)c2n1  510 nM
24. Cc1cc(O)c(CN(C)Cc2ccc(N(C)C)cc2)cc1C(C)C  550 nM
25. Cc1cccc(C)c1C1CCN(C2CCC(NC(=O)/C=C/c3ccccc3)CC2)CC1 (configuration not stated)  580 nM
26. CCCc1cc(OC)c(C[C@H]2c3cc(O)c(Cl)cc3CCN2C)cc1OC  580 nM
27. CCOc1ccc(C(=O)Nc2ccc(-c3nc4ccccc4[nH]3)cc2)cc1[N+](=O)[O-]  590 nM
28. O=C(/C=C/c1ccc(Cl)c(Cl)c1)N1CCC(CCN2CCC(c3c[nH]c4ccccc34)CC2)CC1  600 nM
29. Cc1cc(N[C@@H](Cc2ccccc2)C(=O)NCCOc2ccccc2)nc(NCCc2ccc(F)cc2)n1  600 nM
30. O=C(Nc1ccc(C(F)(F)F)cc1)c1ccc(S(=O)(=O)NC2CCN(Cc3ccccc3)C2)cc1 (configuration not stated)  620 nM
31. Cc1ccc(N(CCC(=N)N)Cc2ccccc2)cc1  660 nM
32. O=C(Nc1ccc(Cl)cc1)N[C@H]1CCN(Cc2ccc(OCCCN3CCCCC3)cc2)C1  670 nM
33. Cc1cccc2[nH]c(-c3ccc(-c4ccc(NC(=O)c5cncn5C)cc4)s3)nc12  670 nM
34. O=C(NCCCCN1CCN(c2ccc3c(c2)CCC3)CC1)c1ccc(NC(=O)c2ccc(Cl)cc2)cc1  680 nM
35. COc1cccc(Nc2nc(C)cc(NC3CCN(Cc4ccccc4)CC3)n2)c1  690 nM
36. COc1ccc(-c2cc(C(=O)Nc3ccc4nc(-c5ccccc5)[nH]c4c3)[nH]n2)cc1  700 nM
37. Cc1ccc(NC(=O)c2cccc(CN3CCCN(Cc4cccc(O)c4)CC3)c2)cc1F  710 nM
38. Nc1nc2ncn(COC(COCc3ccccc3)COCc3ccccc3)c2c(=O)[nH]1 (tested in a mixture with another compound)  710 nM
39. Cc1cc(-c2cccc(CNCc3ccccc3)c2)ccc1S(=O)(=O)NCCN1CCCC1  730 nM
40. CS(=O)(=O)CCNCc1ccc(-c2ccc3c(Nc4ccc(F)cc4Cl)ccnc3c2)o1  740 nM
41. COc1ccc(NC(=O)Nc2cc(C)nc3cccnc23)cc1Cn1ccnc1  740 nM
42. CCOC(=O)c1ccc(NC(=O)N[C@H]2CCN(CCCCCNC(=O)/C=C/c3ccc(Cl)c(Cl)c3)C2)cc1  740 nM
43. C=C(C)C1CC=C(CN2CCCC(n3ccc4cc(NC(=O)c5ccco5)ccc43)CC2)CC1 (configuration not stated)  750 nM
44. CC(C(=O)Nc1ccc(Br)cc1Br)N1CCN(C(=O)c2ccco2)CC1 (configuration not stated)  750 nM
45. O=C(NCCCCN1CCN(c2cccc(Cl)c2Cl)CC1)c1ccc2c(c1)CCN(C1CCC1)CC2  750 nM
46. c1ccc(CN2CCCN(c3ccc4c(c3)CCN(Cc3ccc(-c5ncc[nH]5)cc3)CC4)CC2)cc1  760 nM
47. CN1CCN(CCCN(Cc2cccc(-c3ccc(CNC4CCCC4)cc3)c2)C(=O)CCC2CCCC2)CC1  760 nM
48. Cc1cccc(N2CCN(Cc3cc(Cl)ccc3O)CC2)c1C  770 nM
49. S=C(NN=Cc1ccccn1)Nc1ccc(Cl)c(Cl)c1  770 nM
50. CN1CCc2cc(O)c(NS(=O)(=O)c3ccc(-c4ccc(Cl)cc4)cc3)cc2CC1  770 nM
51. O=C(Nc1cccc(OC2CCN(Cc3ccccc3)CC2)c1)Nc1cccc([N+](=O)[O-])c1  780 nM
52. CC(C)COc1cc(C(=O)Nc2cnc3ccccc3c2)ccc1[N+](=O)[O-]  780 nM
53. CO/C(=C/C=C/c1cc2cc(Cl)c(Cl)cc2[nH]1)C(=O)NC1CC(C)(C)N(C)C(C)(C)C1  780 nM
54. O=S(=O)(/C=C/c1ccccc1)N(Cc1ccc(-c2ccc(CNCCc3ccccc3)cc2)cc1)CC1CCCCN1 (configuration not stated)  790 nM
55. CC(Nc1nncc(-c2cccc(F)c2)n1)c1ccc(F)cc1 (configuration not stated)  790 nM
56. COc1ccc2nccc(NN=Cc3ccc(N(C)C)cc3)c2c1  800 nM
57. CC(=O)Nc1ccc(C(=O)NC2CCN(c3ccnc4cc(Cl)ccc34)C2)cc1 (configuration not stated)  810 nM
58. N#Cc1cccc(CN(Cc2ccc(Cl)c(Cl)c2)S(=O)(=O)c2cccc([N+](=O)[O-])c2)c1  810 nM
59. COc1ccc(C(=O)O)cc1OCc1ccccc1  820 nM
60. Cc1cccc2[nH]c(-c3ccc(-c4ccc(CN5CCCC(O)C5)cc4)s3)nc12 (configuration not stated)  830 nM
61. CN1CCN(CCCN(Cc2ccc(-c3cccc(CNCc4ccc5c(c4)OCO5)c3)cc2)C(=O)NCCc2ccccc2)CC1  840 nM
62. O=C(/C=C/c1ccc(Cl)c(Cl)c1)NCCCCCN1CCC(C(=O)Nc2ccc3c(c2)OCO3)CC1  840 nM
63. Clc1cc(Nc2ncnc3cc(C#C[C@H]4CCCN4)sc23)cc2[nH]c(Cc3ccccc3)nc12  850 nM
64. CCCNC(=O)c1cncc(-c2ccc(CNC3Cc4ccccc4C3)cc2)c1  850 nM
65. O=C(NC1CCN(Cc2ccccc2)CC1)c1ccc(CNC2CCN(Cc3ccccc3)CC2)cc1  870 nM
66. Cc1cc(CNCC2CCC(CNCCCc3ccccc3)CC2)ccc1O (configuration not stated)  870 nM
67. COc1ccc2ncc(F)c([C@@H](O)CN3CCC(NCc4cc(C#N)c5c(c4)CCO5)CC3)c2n1  890 nM
68. COC(=O)c1ccc(CC(C)NCC(O)c2cccc(SC(F)(F)F)c2)cc1 (configuration not stated)  890 nM
69. O=C(NCc1ccc(Cl)c(Cl)c1)c1ccc(-c2nc3ccc(Cl)cc3[nH]2)cc1  900 nM
70. CCCCCCCN1CC[C@@H](CCCc2ccnc3ccc(OCCN4CCOCC4)cc23)[C@@H](CC)C1  910 nM
71. CC[C@H](NC(=O)c1c(N)c(-c2sccc2Cl)nc2ccccc12)c1ccccc1  910 nM
72. COc1ccc(-n2ncc(C(=O)N3CCC4(C3)C(=O)N(c3ccccc3)c3ccccc34)c2C)cc1 (configuration not stated)  930 nM
73. COc1ccc2nccc([C@@H](O)CN3CCC(NC(=O)/C=C/c4ccnc5ccccc45)CC3)c2c1  940 nM
74. CC(C)Nc1nc(NCCc2cnc[nH]2)nc(NCc2ccc(Cl)c(Cl)c2)n1  960 nM
75. CCCCSc1nc2c(c(=O)n1Cc1ccco1)C1(CCCCC1)Cc1ccccc1-2  960 nM
76. Cc1cc(C(=O)Nc2ccc(OCc3ccccc3)cc2)on1  990 nM
77. CC(=O)Nc1ccc(S(=O)(=O)Nc2c(C)cc(Cc3cnc(N)nc3N)cc2C)cc1  1000 nM
78. COc1nc2c(CCN3CC[C@H](NCc4ccc5c(c4)NC(=O)CO5)[C@H](O)C3)c(Cl)cnc2cc1F  1020 nM
79. CCc1ccc(C(=O)Nc2cccc(CN3CCCN(Cc4ccc(O)cc4)CC3)c2)cc1  1030 nM
80. CN(CCN)Cc1ccc(-c2ccc(-c3nc4ccc(F)cc4[nH]3)s2)cc1  1070 nM
81. O=[N+]([O-])c1ccc(Nc2nc(NN=Cc3cccc(O)c3)nc(N3CCCC3)n2)cc1  1080 nM
82. O=C(NC1CCC(CN2CCC(c3c[nH]c4ccccc34)CC2)CC1)c1cc(-c2cccc(Cl)c2)n(-c2ccc(Cl)cc2Cl)n1 (configuration not stated)  1080 nM
83. CC(C)c1ccc(CN2CCCCC(NC(=O)c3cc(-c4ccccc4Cl)cs3)C2)cc1 (configuration not stated)  1120 nM
84. CCCCOc1ccc(CNCCCCCCNCc2ccc(OCCCC)c3ccccc23)c2ccccc12  1130 nM
85. CN1CCCN(Cc2cccc(-c3cccc(NC(=O)c4ccc(C#N)cc4)c3)c2)CC1  1140 nM
86. Cc1cccc(-c2c(C)nc(N)nc2N)c1  1150 nM
87. CCCCN1CCN(Cc2cccc(NC(=O)c3ccc(Cl)c(Cl)c3)c2)CC1  1160 nM
88. O=C(Nc1cccc(CN2CCN(Cc3ccc(O)cc3)CC2)c1)c1cc2ccccc2o1  1180 nM
89. CCCC(C)NC(=O)[C@H](Cc1ccccc1)NC(=O)c1ccc(O)c(-c2ccc(OC)cc2)c1 (some centres not stated)  1240 nM
90. CC(C)c1ncc(-c2ccncc2)c(C2CCC(CNC(=O)c3ccncc3)CC2)n1 (configuration not stated)  1350 nM
91. COc1cc2nc(-c3ccccc3)nc(N3CCN(C(=O)c4ccco4)CC3)c2cc1OC  1410 nM
92. O=C(Nc1cccc(C(F)(F)F)c1)c1cccc(S(=O)(=O)NCC2CCN(CC3CCCCC3)CC2)c1  1470 nM
93. O=C(/C=C/c1ccc2ccccc2c1)NCC1(c2ccc(-c3ccccc3)cc2)CCOCC1  1520 nM
94. COc1cc2nc(N3CCC(CNC(=O)c4cccc5cccnc45)CC3)nc(N)c2cc1OC  1700 nM
95. CN(Cc1ccc(C#N)cc1)C1CCN(c2cc(NC(=O)c3cccc(F)c3)ccn2)CC1  1750 nM
96. Cc1cc(N[C@@H](Cc2ccccc2)C(=O)Nc2ccccc2)nc(NCCN2CCCC2)n1  1810 nM
97. COc1ccc(OCC(=O)Nc2nc(-c3ccc(OC)cc3)c(C)s2)cc1  1950 nM
